From paper PMC5787466, “Accelerated bottom-up drug design platform enables the discovery of novel stearoyl-CoA desaturase 1 inhibitors for cancer therapy” (Oncotarget, 2017)

Legend:
Caki1 = experiment: Proliferation dose-response IC50, Caki1; format: cell-based; conditions: Homo sapiens, CAKI-1; proliferative IC50, linear regression modeling of dose-response
Description: (§1) Error bars indicate standard deviation for n=2 replicates. […] To evaluate inhibition of SCD1 by these molecules, we used LC/MS to quantify changes in SCD1-catalyzed conversion of stearoyl-CoA to oleoyl-CoA in response to drug treatments in vitro using SCD1 protein extracted from murine liver (Figure 3c, Supplementary Figure 2g). […] Synthesis routes and spectral data including NMR and MS are also provided (Supplementary Figures 3-6).
Cells were seeded at 5,000 cells/well in clear-bottom 96-well plates in triplicate. Drug treatment was applied at 1:1000 in reduced serum conditions (3%). […] Alternatively, cells were plated 2x10^5/well in 12-well plates (Genesee Scientific) in triplicate prior to drug treatment. After 120-hour treatment, cell number was established using a Coulter Particle Counter (Beckman). Oleic acid-albumin (Sigma Aldrich) was added to media at 5µM, and was applied adjuvant to drug treatment. Drug stocks were prepared in DMSO (Sigma) at 1000x. IC50 dosing per cell line was calculated using CalcuSyn analytical software.

[1] = target: T1, SCD1 protein extracted from murine liver (Mus musculus, UniProt P13516); experiment: In vitro SCD1 enzymatic inhibition by LC/MS (stearoyl-CoA to oleoyl-CoA, liver microsomes); format: biochemical; conditions: n=2
T1 construct: Microsomes were isolated from murine liver using Microsome Isolation Kit (BioVision); from tissue; host or cells: murine liver microsomes
T1 sequence (P13516 1-355): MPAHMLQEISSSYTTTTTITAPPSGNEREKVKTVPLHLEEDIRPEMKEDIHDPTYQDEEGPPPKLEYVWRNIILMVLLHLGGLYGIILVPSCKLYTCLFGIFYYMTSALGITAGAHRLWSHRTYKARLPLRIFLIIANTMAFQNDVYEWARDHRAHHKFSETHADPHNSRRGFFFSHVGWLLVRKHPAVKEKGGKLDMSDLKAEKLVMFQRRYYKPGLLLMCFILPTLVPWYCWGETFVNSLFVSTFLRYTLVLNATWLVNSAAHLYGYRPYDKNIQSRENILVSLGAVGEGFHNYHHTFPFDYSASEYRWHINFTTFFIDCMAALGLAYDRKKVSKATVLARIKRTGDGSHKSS
Description: as §1, with “After synthesis feasibility and cost analysis, we synthesized 38 of the selected compounds.” for “Error bars indicate standard deviation for n=2 replicates.”
Microsomes were isolated from murine liver using Microsome Isolation Kit (BioVision) per the manufacturer protocol. […] To quantify biotransformation of ^13C18-stearoyl CoA to ^13C18-oleoyl CoA for drug treatments relative to vehicle controls, supernatants were evaluated using the LC/MS^2 acyl CoA quantitation method of Magnes et al. and adapting selected reaction monitoring (SRM) for isotope-labeled acyl CoAs. […] SRM signal areas for isotope-labeled acyl CoAs were measured relative to the heptadecanoyl CoA I.S. using XCalibur software (Thermo), and percent enzyme inhibition determined by comparing ^13C18-oleoyl CoA quantities between treatment and DMSO control assays. […]

A498 ccRCC tumors = experiment: Subcutaneous A498 xenograft tumor growth; format: in vivo, athymic nude mice; conditions: oral administration in chow, 60, 180 or 600 mg/kg, 4.5 weeks
Description: SCD1 expression correlates with poor cancer patient outcomes as evidenced by decreased survival in multiple cancers including gastric, lung, ovarian and renal cell carcinoma (Figure 5a-5b, Supplementary Figure 9a-9b). […] Our findings in thyroid carcinoma similarly present discordancy between tumor response to SCD1 inhibitors and SCD1 expression. SSI-4 was tested in vivo for anti-tumorigenic activity.
Figure 5 SSI-4 attenuates tumor progression Kaplan Meier survival analysis of indicated subtypes of (a) gastric and (b) lung cancer patients sorted into high versus low SCD1 mRNA expression, for multiple disease subtypes. Patient risk assessment at indicated mean follow-up is shown. […] (h) Tumor burden of ACHN pulmonary metastasis in response to SSI-4 treatment (180mg/kg) measured by ex vivo bioluminescent flux, given in photons/second (n=5 per group). ([…]) Tumor burden of ACHN pulmonary metastasis as determined by H&E staining of lungs from (h).
A498 cells were injected subcutaneously in the flank of athymic nude mice at 1x10^6/mouse. […] Tumor burden was measured using calipers. […] Once therapy was completed, lung tissue was harvested and analyzed for tumor burden via ex vivo bioluminescent imaging, and hematoxylin and eosin (H&E) staining of formalin-fixed, paraffin-embedded lung tissue. […]

## CNC(=O)c1ccnc(NC(=O)N2CCC(Oc3ccccc3Cl)CC2)c1 [SSI-4]
Caki1
  IC50: 0.01 µM
[1]
  IC50: 1.9 nM
A498 ccRCC tumors
  growth of A498 ccRCC tumors: growth inhibition
